In PubChem BioAssay (NCI):
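Interpolation was linear, between the two tested concentrations surrounding the appropriate level; five concentrations were tested over 48 hours in 96-well plates. TGI: concentration producing complete growth inhibition.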

Key:
[1] = test system: P388/ADR leukemia; test: NCI tumour cell line growth inhibition, 48 h
[2] = test system: SN12K1 renal; test: NCI tumour cell line growth inhibition, 48 h

Nc1nncs1
TGI [1]: 2.82 mM
TGI [2]: > 5 mM
